Laboratory results published in EP1229025A1, “NOVEL QUINAZOLINE DERIVATIVES” (Japan Energy Corporation, priority 1999, dated 2001).

Legend:
Type in all cases: cell-based
IL-4 production = IL-4 production inhibiting test in OVA-stimulated spleen cells of immunised mouse (ELISA); settings: 72 h, spleen cells of OVA-immunised BALB/c-mouse, OVA 0.5 mg/ml, 3 days
Procedure: (§1) Example 146: IL-4 and IL-5 production inhibiting test
(§2) A 6-weeks-old BALB/c-mouse (Nippon Charles River) was bred preparatively for 1 week and given at the day 0 and day 14 intraperitoneal injection of 100 µl PBS to give immunity which PBS contained 0.1 mg/ml of Ovalbumin(OVA) and 40 mg/ml of aluminum hydroxide. At the day 21 the spleen was taken out from the mouse. The spleen was dissected with a pincette in cooled PBS, passed through a mesh and subjected to centrifugation at 4 °C at 1,500 rpm for 5 minutes. The cells was added with 5 ml of 0.2% NaCI to destroy erythrocytes, and then was made isotonic by adding 5 ml of 1.6% of NaCl. After centrifugation at 4 °C, 1,500 rpm for 5 minutes, the cells were washed twice with 10 ml ofRPMI1640 culture medium. The obtained spleen cells were suspended in cRPMI1640 medium, and the number of the cells was measured by Tuerk dying. After being adjusted to 1 × 10^7 cells/ml, the cells were planted in 100 µl/well on a 96-well plate (FALCON). The cells were cultured at 37 °C under 5% CO2 atmosphere for about 4 hours. OVA was prepared to 10 mg/ml with cRPMI1640 culture medium and subjected to sterile filtration. The 10 mg/ml OVA was diluted with cRPMI1640 culture medium to give 1 mg/ml OVA. A compound to be tested which was dissolved in DMSO in at 1,000-fold concentration was diluted up to 500-fold with cRPMI1640 culture medium containing 1 mg/ml OVA and added in 100 µl/well to the cells which had been planted on the previously mentioned 96-well plate (final concentration of OVA: 0.5 mg/ml). As the controls, the solutions were made by diluting DMSO of the same volume as with the test compounds with cRPMI1640 culture medium containing 1 mg/ml OVA, and they were added to the cells. These cells were cultured at 37 °C under 5%CO2 atmosphere for 3 days. IL-4 and IL-5 in the culture supernatants after 3 days were quantitatively determined by ELISA method. IL-4 and IL-5 were quantitatively determined using IL-4 Development Kit (Genzyme Techne) and mouse IL-5 MiniKit (ENDOGEN), respectively. The production inhibiting rates of each tested compound against IL-4 are shown in Table 22, those against IL-5 in Table 23.

IL-5 production = IL-5 production inhibiting test in OVA-stimulated spleen cells of immunised mouse (ELISA); settings: 72 h, spleen cells of OVA-immunised BALB/c-mouse, OVA 0.5 mg/ml, 3 days
Procedure: as §1, §2

TNF-α production = TNF-α production inhibiting test using human PBMC (LPS stimulus, ELISA); settings: LPS 10 ng/ml, 16 hours, ELISA of culture supernatants
Procedure: Example 145: TNF-α production inhibiting test using human PBMC (peripheral blood mononuclear cells)
Preparation of human PBMC
The blood of a healthy person was taken with a vacuum blood-collecting tube (Nipro neotube) and diluted up to two-fold with physiological saline (Otsuka Pharmaceuticals). To the diluted blood was added 6% dextran T-500 (prepared after dissolution in physiological saline (Otsuka Pharmaceuticals) and sterilization with an autoclave) so as to make a final concentration of 1%. The solution was subjected to tumble mixing and allowed to stand at room temperature for 30 minutes to precipitate the erythrocytes. The supernatant was collected and subjected to centrifugation at 20 °C and at 1,500 rpm for 10 minutes. The cells were suspended in 3 ml of RPMI1640 culture medium (Asahi Technogllas) and overlaid on the solution surface of 3 ml Lymphoprep (NYCOMED). Further, with 1.5 ml of RPMI1640 culture medium being added to the tube which had contained the cell suspension liquid, the cells attached to the tube, which had remained uncollected, were suspended for collection and overlaid on the Lymphoprep previously mentioned. This operation was repeated again. After centrifugation at 20 °C and at 2,000 rpm for 30 minutes, there was collected a fraction of peripheral blood mononuclear cells present in the boundary surface between the Lymphoprep and the RPMI1640 culture medium. The cells were washed twice with 10 ml RPMI1640 culture medium to remove the Lymphoprep and then suspended in a RPMI1640 culture medium added with 10% bovine fetal serum (IRVINE SCIENTIFIC), 100 U/ml penicillin and 100 µg/ml streptomycin (hereinafter referred to as cRPMI1640 culture medium). The number of the cells was measured by Tuerk dying, and the cells, after adjustment to 3 × 10^6 cells/ml, were planted in 100 µl/well on a 96-well plate (FALCON). The cells were cultured at 37 °C under 5%CO2 atmosphere for about 5 hours.
Induction of TNF-α production by LPS stimulus
LPS (E.coli 0111:B4, DIFCO), which had been prepared to 10 mg/ml with water and kept at -20, was diluted to 100 µg/ml with cRPMI1640 culture medium and subjected to sterile filtration. The 100 µg/ml LPS was diluted with cRPMI1640 culture medium to prepare 20 ng/ml LPS. A compound to be tested which was dissolved in DMSO at 1,000-fold concentration was diluted to 500-fold with cRPMI1640 culture medium containing 20 ng/ml LPS and added in 100 µl/well to the cells which had been planted on the previously mentioned 96-well plate (final concentration of LPS: 10 ng/ml). For use as the control group, the solutions were made by diluting DMSO of the same volume as in the test compounds with cRPMI1640 culture medium containing 20 ng/ml LPS, and they were added to the cells. These cells were cultured at 37 °C under 5%CO2 atmosphere for 16 hours.
Determination of TNF-α activity (ELISA method)
To the 96-well plate the mouse anti-human TNF-α antibody (prepared to 2 µg/ml with Coating buffer*^1) was added so as to make 100 µl/well and allowed to stand at 4 °C overnight. After 5-times washing with Wash buffer*^2 (300µl/well), the Blocking buffer*^3 was added to the solutions, which were allowed to stand 37 °C for 2 hours. The culture supernatants were diluted up to 5-fold in the plate (supernatant 20 µl being added to 80 µl of cRPMI1640 culture medium). Simultaneously, for using for a calibration curve, a series of dilution of recombinant human TNF-α was prepared arid allowed to stand 37 °C for 1 hour. After 5-times washing with Wash buffer (300 µl /well), biotinylated rabbit anti-human TNF-α antibody (prepared to 0.25 µg/ml with Antibody diluent*^4) was added so as to make 100 µl /well and allowed to stand at 37 °C for 1 hour. After 5-times washing with Wash buffer (300 µl /well), Streptavidin-Horseradish peroxidase(prepared to 1:4000 with Antibody diluent) was added to make 100 µl /well and allowed to stand at 37 °C for 15 minutes. […]

O=[N+]([O-])c1cc2c(NCc3cccc(F)c3)ncnc2cc1N1CCNCC1 [Example 62, 4-(3-fluorobenzylamino)-6-nitro-7-(piperazin-1-yl)quinazoline]
IC50 (IL-4 production): 0.1 µM
IC50 (IL-5 production): 1.4 µM
IC50 (TNF-α production): 0.3 µM

CCOC(=O)c1ccc(CNc2ncnc3cc(N4CCNCC4)c([N+](=O)[O-])cc23)cc1 [Example 129, 4-[(4-ethoxycarbonyl)benzylamino]-6-nitro-7-(piperazin-1-yl)quinazoline]
IC50 (IL-4 production): 0.1 µM
IC50 (IL-5 production): 1.7 µM
IC50 (TNF-α production): 0.2 µM

CC(C)(C)c1cc(CNc2ncnc3cc(N4CCNCC4)c([N+](=O)[O-])cc23)cc(C(C)(C)C)c1O [Example 131, 4-[(3,5-di-tert-butyl-4-hydroxy)benzylamino]-6-nitro-7-(piperazin-1-yl)quinazoline]
IC50 (IL-4 production): 0.2 µM
IC50 (IL-5 production): 1.4 µM
IC50 (TNF-α production): 0.3 µM
